From patent US6855727B2, “Muscular fatigue-controlling composition and method for providing muscular fatigue-controlling effect” (Yaizu Suisankagaku Industry Co., Ltd., priority 2000, dated 2005)

Experiment: lactic acid amount in plasma after loading of exercise
Assay type: in vivo
Settings: Test Example 2; mice, 200 mg/kg oral (total amount); 1 hour after loading of exercise (FIG. 6)
Description: Further, when 1 hour passed after the loading of exercise, the blood was collected and the plasma was separated, and the lactic acid amount in the plasma was measured. The measurement of lactic acid amount was carried out with a commercially available kit (trade name: “F-kit L-lactic acid”; manufactured by Beringer Mannheim Co.). […] Further, when 1 hour passed after the loading of exercise, the blood was collected and the plasma was separated, and the lactic acid amount in the plasma was measured in the same manner as in TEST EXAMPLE 1.

With O=C[C@H](O)[C@H](O)[C@H](O)CO [ribose, D-ribose] the “lactic acid amount in the plasma, decrease as compared with the control group” value was 29.4%.
